Earlier results as cited in article PMC5131364, “Pharmacologic modulation of RORγt translates to efficacy in preclinical and translational models of psoriasis and inflammatory arthritis” (Scientific Reports, 2016).

Columns and labels:
mouse CIA model = system: mouse CIA model; set-up: method as in PMID 24574218; conditions: mouse CIA model ref 49; cited from earlier work
psoriatic skin = conditions: after 12 weeks of treatment ref 70; cited from earlier work

Compound | joint inflammation and clinical scores (mouse CIA model) | IL-17A and IL-17F gene expression in psoriatic skin (psoriatic skin)
OC(c1ccc(-c2ccc(CN3CCN(Cc4ccncc4)CC3)cc2)c(F)c1)(C(F)(F)F)C(F)(F)F [SR2211] | reduce joint inflammation | 
guselkumab: anti-IL-23 mAb |  | significant inhibition
